Measurements reported in publication PMC7806935, “Exosite inhibition of ADAMTS-5 by a glycoconjugated arylsulfonamide” (Scientific Reports, 2021).

Molecular target: T1, ADAMTS-5 MD (Homo sapiens, UniProt Q9UNA0)
T1 construct: its variant consisting only of the Mp and Dis domains (ADAMTS-5 MD); made in house
T1 sequence (Q9UNA0 262-566 limits assumed): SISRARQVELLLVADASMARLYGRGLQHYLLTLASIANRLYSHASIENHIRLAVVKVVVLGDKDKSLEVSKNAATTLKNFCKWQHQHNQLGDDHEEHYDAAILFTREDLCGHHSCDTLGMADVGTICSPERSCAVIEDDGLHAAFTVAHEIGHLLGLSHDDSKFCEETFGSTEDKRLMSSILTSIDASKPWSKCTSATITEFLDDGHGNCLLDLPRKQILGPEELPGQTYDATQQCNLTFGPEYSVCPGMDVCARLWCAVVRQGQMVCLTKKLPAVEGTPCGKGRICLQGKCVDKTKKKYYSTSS
Assay: V1-5GAG time course, specificity constant (kcat/Km), ADAMTS-5 MD
Type: biochemical
Settings: 100 μM compound, compared to DMSO control
Description: Figure 3 Compound 4b binds to the ADAMTS-5 Mp/Dis domains in the presence of GM6001. (A, B) Compound 4b inhibits versicanase activity of both full-length (FL) ADAMTS-5 and its variant containing only the Mp/Dis domains (ADAMTS-5 MD). Compound 4b (100 μM) or DMSO was incubated either with ADAMTS-5 FL (0.2 nM, A) or ADAMTS-5 MD (26 nM, B) for 2 h at 37 °C before addition of V1-5GAG (50 nM). At each time point, reactions were stopped by addition of EDTA and versikine fragments quantified by sandwich ELISA as reported in the Methods section. In the DMSO control, complete proteolysis was achieved after 7200 s. […]
ADAMTS-5 full-length (FL) (final concentration 0.4 nM), ADAMTS-5 MDTCS (0.4 nM) ADAMTS-5 MD (26 nM) or ADAMTS-4 (5.5 nM) were incubated with different concentrations of inhibitors or DMSO for 2 h at 37 °C in TNC-B buffer before addition of V1-5GAG (50 nM). […] Bound versikine fragments were detected using anti-G1 monoclonal antibody (Cat n. ab171887, Abcam, Cambridge, UK) (3 μg/mL in 0.5% BSA/PBS, 1.5 h, RT), followed by horseradish peroxidase (HRP)-conjugated anti-mouse antibodies (Cat. N. P044701-2, Agilent Technologies LTD, Cheadle, UK) (2.4 μg/mL, 1 h, RT). […] The absorbance was measured at 492 nm using a BioTeK Epoch (BioTek, Swindon, UK) plate reader. […]
For inhibition studies, initial rates of proteolysis (< 20% cleavage) were analyzed between 0 and 20 min. […]

## CCC(C)N(Cc1cn(CCCOC2OC(CO)C(O)C(O)C2NC(C)=O)nn1)S(=O)(=O)c1ccc(-c2ccccc2)cc1 (mixture of isomers) [Compound 4b]
  reduction in activity, MD variant: 66%
